Data taken from patent publication US8450266B2 (Ipsen Pharma S.A.S., priority 2008, dated 2013).
Where a SMILES comes first, the peptide text is derived from it. [ ]: non-standard residue; d: D form. The star is where a group is joined. Myristoyl = CCCCCCCCCCCCCC(=O)*; Decanoyl = CCCCCCCCCC(=O)*; Ac6c = NC1(C(=O)O)CCCCC1; Orn = NCCC[C@H](N)C(=O)O; X1 = CCCN1C(=O)CC(*)C1=O; Hexanoyl = CCCCCC(=O)*

Tests used:
[1] = Rat plasma half-life assay (LC-MS); type: in vitro ADME; settings: incubated at 37° C., read-out: Rat Plasma T½ (converted)
Procedure: (§1) B. Human and Rat Plasma Half-Life Assay
(§2) 50 μl, was removed at various times, like at 0, 1, 2, 3, 4, 8, 24, 32, 48, 56, 72 hours, mixed with 5 μL formic acid and 150 μL acetonitrile in a microcentrifuge tube, vertexed, and centrifuged for 10 minutes at 10K rpm. The supernatant was transferred to an injection vial and analyzed by LC-MS. The LC-MS system consisted of an API4000 mass spectrometer with an ESI probe. Positive ion mode and full scan detection were used. HPLC separation was carried out on a Luna 3μ C8 (2), 2×30 mm column with a gradient from 90% A to 90% B in 10 minutes at a flow rate of 0.3 ml/min. Buffer A was 1% formic acid in water and buffer B was 1% formic acid acetonitrile.

[2] = Human plasma half-life assay (LC-MS); type: in vitro ADME; settings: incubated at 37° C., read-out: Human Plasma T½ (converted)
Procedure: as §1, §2

SMILES	half-life at 0.1 mg/mL [1] [h]	half-life at 0.1 mg/mL [2] [h]	half-life at 0.1 mg/ml [1] [h]	half-life at 0.1 mg/ml [2] [h]
CCCN1C(=O)CC(SC[C@H](NC(=O)[C@H](CCCCN)NC(=O)[C@H](CCC(N)=O)NC(=O)[C@H](C)NC(=O)[C@H](CC(C)C)NC(=O)[C@H](CC(C)C)NC(=O)[C@H](Cc2c[nH]c3ccccc23)NC(=O)[C@H](CC(N)=O)NC(=O)[C@@H](NC(=O)[C@H](Cc2ccccc2)NC(=O)[C@H](CC(=O)O)NC(=O)[C@H](CCC(N)=O)NC(=O)[C@H](CCC(N)=O)NC(=O)[C@H](Cc2c[nH]cn2)NC(=O)[C@@H](NC(=O)[C@H](CCCCN)NC(=O)[C@H](CC(=O)O)NC(=O)[C@H](CCSC)NC(=O)[C@H](C)NC(=O)[C@@H](NC(=O)[C@H](CO)NC(=O)[C@H](Cc2ccc(O)cc2)NC(=O)[C@H](CC(=O)O)NC(=O)[C@H](CO)NC(=O)C2(NC(C)=O)CCCCC2)[C@@H](C)CC)[C@@H](C)CC)C(C)C)C(=O)N[C@@H](CCCCN)C(=O)N[C@@H](CCCCN)C(=O)N[C@@H](CC(N)=O)C(=O)N[C@@H](CC(=O)O)C(=O)N[C@@H](Cc2c[nH]c3ccccc23)C(=O)N[C@@H](CCCCN)C(=O)N[C@@H](Cc2c[nH]cn2)C(=O)N[C@@H](CC(N)=O)C(=O)N[C@H](C(=O)N[C@H](C(=O)N[C@@H](CCC(N)=O)C(=O)O)[C@@H](C)O)[C@@H](C)CC)C1=O (stereo partly drawn) [Example 10, [Ac-A6c^7, Cys(Psu)^31]hGIP(7-42)-OH] (Ac-[Ac6c]SDYSIAMDKIHQQDFVNWLLAQKC(X1)KKNDWKHNITQ-OH)	2.6	8	–	–
CCCCCCCCCCCCCC(=O)NCCC[C@H](NC(=O)[C@H](CCCCN)NC(=O)[C@H](CCC(N)=O)NC(=O)[C@H](C)NC(=O)[C@H](CC(C)C)NC(=O)[C@H](CC(C)C)NC(=O)[C@H](Cc1c[nH]c2ccccc12)NC(=O)[C@H](CC(N)=O)NC(=O)[C@@H](NC(=O)[C@H](Cc1ccccc1)NC(=O)[C@H](CC(=O)O)NC(=O)[C@H](CCC(N)=O)NC(=O)[C@H](CCC(N)=O)NC(=O)[C@H](Cc1c[nH]cn1)NC(=O)[C@@H](NC(=O)[C@H](CCCCN)NC(=O)[C@H](CC(=O)O)NC(=O)[C@H](CCSC)NC(=O)[C@H](C)NC(=O)[C@@H](NC(=O)[C@H](CO)NC(=O)[C@H](Cc1ccc(O)cc1)NC(=O)[C@H](CC(=O)O)NC(=O)[C@H](CO)NC(=O)C1(NC(C)=O)CCCCC1)[C@@H](C)CC)[C@@H](C)CC)C(C)C)C(=O)N[C@@H](CCCCN)C(=O)N[C@@H](CCCCN)C(=O)N[C@@H](CC(N)=O)C(=O)N[C@@H](CC(=O)O)C(=O)N[C@@H](Cc1c[nH]c2ccccc12)C(=O)N[C@@H](CCCCN)C(=O)N[C@@H](Cc1c[nH]cn1)C(=O)N[C@@H](CC(N)=O)C(=O)N[C@H](C(=O)N[C@H](C(=O)N[C@@H](CCC(N)=O)C(=O)O)[C@@H](C)O)[C@@H](C)CC [Example 12, [Ac-A6c^7, Orn^31(N-C(O)-(CH2)12-CH3)]hGIP(7-42)-OH] (Ac-[Ac6c]SDYSIAMDKIHQQDFVNWLLAQK[Orn](Myristoyl)KKNDWKHNITQ-OH)	> 72	7.3	–	–
CCCCCCCCCC(=O)NCCC[C@H](NC(=O)[C@H](CCCCN)NC(=O)[C@H](CCC(N)=O)NC(=O)[C@H](C)NC(=O)[C@H](CC(C)C)NC(=O)[C@H](CC(C)C)NC(=O)[C@H](Cc1c[nH]c2ccccc12)NC(=O)[C@H](CC(N)=O)NC(=O)[C@@H](NC(=O)[C@H](Cc1ccccc1)NC(=O)[C@H](CC(=O)O)NC(=O)[C@H](CCC(N)=O)NC(=O)[C@H](CCC(N)=O)NC(=O)[C@H](Cc1c[nH]cn1)NC(=O)[C@@H](NC(=O)[C@H](CCCCN)NC(=O)[C@H](CC(=O)O)NC(=O)[C@H](CCSC)NC(=O)[C@H](C)NC(=O)[C@@H](NC(=O)[C@H](CO)NC(=O)[C@H](Cc1ccc(O)cc1)NC(=O)[C@H](CC(=O)O)NC(=O)[C@H](CO)NC(=O)C1(NC(C)=O)CCCCC1)[C@@H](C)CC)[C@@H](C)CC)C(C)C)C(=O)N[C@@H](CCCCN)C(=O)N[C@@H](CCCCN)C(=O)N[C@@H](CC(N)=O)C(=O)N[C@@H](CC(=O)O)C(=O)N[C@@H](Cc1c[nH]c2ccccc12)C(=O)N[C@@H](CCCCN)C(=O)N[C@@H](Cc1c[nH]cn1)C(=O)N[C@@H](CC(N)=O)C(=O)N[C@H](C(=O)N[C@H](C(=O)N[C@@H](CCC(N)=O)C(=O)O)[C@@H](C)O)[C@@H](C)CC [Example 13, [Ac-A6c^7, Orn^31(N-C(O)-(CH2)8-CH3)]hGIP(7-42)-OH] (Ac-[Ac6c]SDYSIAMDKIHQQDFVNWLLAQK[Orn](Decanoyl)KKNDWKHNITQ-OH)	–	–	19	17.8
CCCCCCCCCC(=O)NCCC[C@H](NC(=O)[C@H](CCCCN)NC(=O)[C@H](CCC(N)=O)NC(=O)[C@H](C)NC(=O)[C@H](CC(C)C)NC(=O)[C@H](CC(C)C)NC(=O)[C@H](Cc1c[nH]c2ccccc12)NC(=O)[C@H](CC(N)=O)NC(=O)[C@@H](NC(=O)[C@H](Cc1ccccc1)NC(=O)[C@H](CC(=O)O)NC(=O)[C@H](CCC(N)=O)NC(=O)[C@H](CCC(N)=O)NC(=O)[C@H](Cc1c[nH]cn1)NC(=O)[C@@H](NC(=O)[C@H](CCCCN)NC(=O)[C@H](CC(=O)O)NC(=O)[C@H](CCSC)NC(=O)[C@H](C)NC(=O)[C@@H](NC(=O)[C@H](CO)NC(=O)[C@H](Cc1ccc(O)cc1)NC(=O)[C@H](CC(=O)O)NC(=O)[C@H](CO)NC(=O)C1(N)CCCCC1)[C@@H](C)CC)[C@@H](C)CC)C(C)C)C(=O)N[C@@H](CCCCN)C(=O)N[C@@H](CCCCN)C(=O)N[C@@H](CC(N)=O)C(=O)N[C@@H](CC(=O)O)C(=O)N[C@@H](Cc1c[nH]c2ccccc12)C(=O)N[C@@H](CCCCN)C(=O)N[C@@H](Cc1c[nH]cn1)C(=O)N[C@@H](CC(N)=O)C(=O)N[C@H](C(=O)N[C@H](C(=O)N[C@@H](CCC(N)=O)C(=O)O)[C@@H](C)O)[C@@H](C)CC [Example 14, [A6c^7, Orn^31(N-C(O)-(CH2)8-CH3)]hGIP(7-42)-OH] (H-[Ac6c]SDYSIAMDKIHQQDFVNWLLAQK[Orn](Decanoyl)KKNDWKHNITQ-OH)	–	–	15.3	4.1
CCCCCCCCCC(=O)NCCC[C@H](NC(=O)[C@H](CCCCN)NC(=O)[C@H](CCC(N)=O)NC(=O)[C@H](C)NC(=O)[C@H](CC(C)C)NC(=O)[C@H](CC(C)C)NC(=O)[C@H](Cc1c[nH]c2ccccc12)NC(=O)[C@H](CC(N)=O)NC(=O)[C@@H](NC(=O)[C@H](Cc1ccccc1)NC(=O)[C@H](CC(=O)O)NC(=O)[C@H](CCC(N)=O)NC(=O)[C@H](CCC(N)=O)NC(=O)[C@H](Cc1c[nH]cn1)NC(=O)[C@@H](NC(=O)[C@H](CCCCN)NC(=O)[C@H](CC(=O)O)NC(=O)[C@H](CCSC)NC(=O)[C@H](C)NC(=O)[C@@H](NC(=O)[C@H](CO)NC(=O)[C@H](Cc1ccc(O)cc1)NC(=O)[C@H](CC(=O)O)NC(=O)[C@H](CO)NC(=O)C1(NC(=O)CCCCCCCCC)CCCCC1)[C@@H](C)CC)[C@@H](C)CC)C(C)C)C(=O)N[C@@H](CCCCN)C(=O)N[C@@H](CCCCN)C(=O)N[C@@H](CC(N)=O)C(=O)N[C@@H](CC(=O)O)C(=O)N[C@@H](Cc1c[nH]c2ccccc12)C(=O)N[C@@H](CCCCN)C(=O)N[C@@H](Cc1c[nH]cn1)C(=O)N[C@@H](CC(N)=O)C(=O)N[C@H](C(=O)N[C@H](C(=O)N[C@@H](CCC(N)=O)C(=O)O)[C@@H](C)O)[C@@H](C)CC [Example 15, [CH3-(CH2)8-C(O)-A6c^7, Orn^31(N-C(O)-(CH2)8-CH3)]hGIP(7-42)-OH] (Decanoyl-[Ac6c]SDYSIAMDKIHQQDFVNWLLAQK[Orn](Decanoyl)KKNDWKHNITQ-OH)	–	–	> 72	5.2
CCCCCC(=O)NCCC[C@H](NC(=O)[C@H](CCCCN)NC(=O)[C@H](CCC(N)=O)NC(=O)[C@H](C)NC(=O)[C@H](CC(C)C)NC(=O)[C@H](CC(C)C)NC(=O)[C@H](Cc1c[nH]c2ccccc12)NC(=O)[C@H](CC(N)=O)NC(=O)[C@@H](NC(=O)[C@H](Cc1ccccc1)NC(=O)[C@H](CC(=O)O)NC(=O)[C@H](CCC(N)=O)NC(=O)[C@H](CCC(N)=O)NC(=O)[C@H](Cc1c[nH]cn1)NC(=O)[C@@H](NC(=O)[C@H](CCCCN)NC(=O)[C@H](CC(=O)O)NC(=O)[C@H](CCSC)NC(=O)[C@H](C)NC(=O)[C@@H](NC(=O)[C@H](CO)NC(=O)[C@H](Cc1ccc(O)cc1)NC(=O)[C@H](CC(=O)O)NC(=O)[C@H](CO)NC(=O)C1(NC(C)=O)CCCCC1)[C@@H](C)CC)[C@@H](C)CC)C(C)C)C(=O)N[C@@H](CCCCN)C(=O)N[C@@H](CCCCN)C(=O)N[C@@H](CC(N)=O)C(=O)N[C@@H](CC(=O)O)C(=O)N[C@@H](Cc1c[nH]c2ccccc12)C(=O)N[C@@H](CCCCN)C(=O)N[C@@H](Cc1c[nH]cn1)C(=O)N[C@@H](CC(N)=O)C(=O)N[C@H](C(=O)N[C@H](C(=O)N[C@@H](CCC(N)=O)C(=O)O)[C@@H](C)O)[C@@H](C)CC [Example 16, [Ac-A6c^7, Orn^31(N-C(O)-(CH2)4-CH3)]hGIP(7-42)-OH] (Ac-[Ac6c]SDYSIAMDKIHQQDFVNWLLAQK[Orn](Hexanoyl)KKNDWKHNITQ-OH)	–	–	30	> 50
